Reference: patent publication US8748448B2, “Combination analgesic employing opioid agonist and neutral antagonist” (AIKO Biotechnology, priority 2007, dated 2014)
Several values for one entry are separate records, joined by “and”; a condition that tells them apart may be missing. Equal entries are not always repeated. Where two headings read alike, the source gives them in different places.

Tests used:
[1] = Neutral antagonist comparison (Table 3); settings: for Equivalent dose (as compared to 1.5 mg to 5 mg 6β-naltrexol): 70 kg subject; for potency, times less potent than 6β-naltrexol: stated as 'may be'/'probably'
[2] = system: opioid withdrawal in methadone-dependent subjects; assay: Double-blind ascending dose study in methadone maintenance subjects: withdrawal scales, VAS, vital signs, pupillometry, tolerability
[3] = po; cited from earlier work
[4] = system: hydrocodone-induced antinociception; assay: 55° C. warm-water tail-flick assay: inhibition of hydrocodone-induced antinociception; format: in vivo, mice
[5] = system: hydrocodone induced GI inhibition; assay: GI transit assay (charcoal meal): reversal of hydrocodone induced GI inhibition; settings: for induction of diarrhea: on administration of the antagonist
[6] = Concentrations in plasma and brain tissue after i.p. injection (LC/MS/MS); settings: for change of levels at 60 min from those measured at 10 min: after i.p. injection; for concentration at 10 min / concentration at 60 min: mouse, 1 mg/kg
[7] = system: hydrocodone effects: GI transit (peripheral) vs. antinociception (central); assay: Peripheral vs. central potency, (antinociception ID50)/(GI transit ID50); format: in vivo, mice; settings: for fold more potent peripherally than centrally: over all administration routes
[8] = humans; literature; cited from earlier work
[9] = Oral bioavailability of the neutral antagonists
[10] = antagonist p.o. co-administered with hydrocodone A90 32 mg/kg p.o.
[11] = antagonist i.v., hydrocodone A90 3.2 mg/kg i.v.
[12] = antagonist p.o., hydrocodone A90 3.2 mg/kg i.v.
[13] = 1 mg/kg i.p., 60 min after injection
[14] = 10 mg/kg i.p., 10 min after injection
[15] = 10 mg/kg i.p., 60 min after injection

What does the source list for `N[C@@H]1CC[C@@]2(O)[C@H]3Cc4ccc(O)c5c4[C@@]2(CCN3CC2CC2)[C@H]1O5` [6β-naltrexamine]?
Equivalent dose (as compared to 1.5 mg to 5 mg 6β-naltrexol) ([1]; given orally): 7.5 to 20 mg; potency, times less potent than 6β-naltrexol [1]: 3-6 fold

For `C=CCN1CC[C@]23c4c5ccc(O)c4O[C@H]2C(=O)CC[C@@]3(O)[C@H]1C5` [Naloxone, naloxone, reference compound], which withdrawal symptoms ([2]; 0.050 mg, methadone-dependent subjects) is on record?
The withdrawal symptoms was “detectable withdrawal symptoms”.

What about the “Diastolic BP, peak value” ([2]; dose 0.05 mg) of the same compound?
Its value is 76.5 ± 3.8 mmHg.

And the “Heart Rate, peak value” ([2]; dose 0.05 mg)?
Its value is 63.5 ± 8.0 bpm.

What about the “SOWS (total), peak value” ([2]; dose 0.05 mg) of the same compound?
The value was 3.0 ± 2.8.

And the “VAS Any Drug Effect, peak value” ([2]; dose 0.05 mg)?
Its value is 15.4 ± 23.7.

And the “VAS Bad Drug Effect, peak value” ([2]; dose 0.05 mg)?
The value was 13.5 ± 25.0.

What about the “VAS Good Drug Effect, peak value” ([2]; dose 0.05 mg) of the same compound?
The value was 10.4 ± 18.9.

And the “VAS Opioid Withdrawal, peak value” ([2]; dose 0.05 mg)?
The value was 5.6 ± 8.2.

What about the “VAS Sickness, peak value” ([2]; dose 0.05 mg) of the same compound?
The value was 4.6 ± 6.5.

And the “OOWS (total), peak value” ([2]; dose 0.05 mg, mean ± standard deviation)?
The value was 2.5 ± 0.6.

With `CN1CC[C@]23CCCC[C@H]2[C@H]1Cc1ccc(O)cc13` [Levorphanol] as the compound, how does the “Bioavailability for CNS (central) effects” value (“Bioavailability for CNS” for short) [3] read?
The value was 70%.

With `COc1cccc(C2(O)CCCCC2CN(C)C)c1` (stereo not shown) [Tramadol] as the compound, how does the “Bioavailability for CNS” value [3] read?
The value was 68-72%.

Which “Bioavailability for CNS” value [3] does the source give for `CCOC(=O)C1(c2ccccc2)CCN(C)CC1` [Pethidine] here?
The value was 50-60%.

Which results are given for `O=C1CC[C@@]2(O)[C@H]3Cc4ccc(O)c5c4[C@@]2(CCN3CC2CC2)[C@H]1O5` [Naltrexone, naltrexone, reference compound]?
Antinociception ID50 ([4]; antagonist i.v. pretreatment, hydrocodone A90 3.2 mg/kg i.v.): 0.0411 mg/kg; Antinociception ID50 [4, 10]: 0.914 mg/kg; Antinociception ID50 ([4]; antagonist p.o. pretreatment, hydrocodone A90 3.2 mg/kg i.v.): 0.534 mg/kg; time of peak effect of antinociception inhibition ([4]; i.v. administration, hydrocodone 3.2 mg/kg i.v.): 30 min; time of peak effect of antinociception inhibition ([4]; p.o. administration, hydrocodone 3.2 mg/kg i.v.): 45 min; GI Transit ID50 [5, 11]: 0.0456 mg/kg; GI Transit ID50 [5, 10]: 1.40 mg/kg; GI Transit ID50 [5, 12]: 0.194 mg/kg; induction of diarrhea [5]: strong induction of diarrhea was present; change of levels at 60 min from those measured at 10 min [6]: ~90%; detectability after administration of 6β-naltrexol ([6]; i.p. 6β-naltrexol): no naltrexone was detectable; concentration at 10 min ([6]; brain, intraperitoneal): 69 ± 20 ng/g; concentration at 60 min ([6]; brain, intraperitoneal): 9 ± 1 ng/g; concentration at 10 min ([6]; in vivo): 54 ± 16 ng/mL; concentration at 60 min ([6]; in vivo): 4 ± 1 ng/mL; fold more potent peripherally than centrally [7]: nearly equipotent peripherally and centrally; fraction converted to 6β-naltrexol [8]: approximately 43%

For `COc1ccc2c3c1O[C@H]1[C@@H](O)C=C[C@H]4[C@@H](C2)N(C)CC[C@@]341` [Codeine], which “Bioavailability for CNS” value [3] is on record?
Its value is “≈90%”.

For `COc1ccc2c3c1O[C@H]1C(=O)CC[C@H]4[C@@H](C2)N(C)CC[C@]314` [Hydrocodone], which “Bioavailability for CNS” value [3] is on record?
The value was “≧80%”.

For `CN1CC[C@]23c4c5ccc(O)c4O[C@H]2C(=O)CC[C@@]3(O)[C@H]1C5` [Oxymorphone], which “Bioavailability for CNS” value [3] is on record?
Its value is 10%.

With 6β-naltrexamide as the compound, how does the “Half-life of active metabolites” value [1] read?
The value was “Estimated >12 hours”.

And the “Bioavailability for CNS” value ([1]; given orally)?
Its value is roughly 25%.

What about the “Equivalent dose (as compared to 1.5 mg to 5 mg 6β-naltrexol)” value ([1]; given orally) of the same compound?
Its value is 3 to 8 mg.

And the “potency, times less potent than 6β-naltrexol” value [1]?
The value was 2-3 fold.

And the “potency in blocking hydrocodone-induced antinociception, lower than that of 6β-naltrexol” value ([4]; mouse, in vivo)?
Its value is “approximately 10 fold”.

What about the “time of peak effect of antinociception inhibition” value ([4]; mouse, in vivo) of the same compound?
The value was 120 min and 120 to 180 min.

And the “potency in blocking peripheral effects, lower than 6β-naltrexol on a mg/kg basis” value ([5]; animal experiments)?
Its value is 2-3 fold.

What about the “GI Transit ID50” value [5, 11] of the same compound?
Its value is 0.173 mg/kg.

And the “GI Transit ID50” value ([5]; antagonist p.o./hydrocodone p.o., full dose-response curves not available)?
The value was 1 to 2 mg/kg.

What about the “GI Transit ID50” value [5, 12] of the same compound?
The value was 1.92 mg/kg.

What about the “GI transit ID50, expected” value ([5]; i.v. administration) of the same compound?
The value was 0.1 to 0.2 mg/kg.

What about the induction of diarrhea [5] of the same compound?
Its induction of diarrhea is “absent”.

What about the “GI transit ID50, expected” value ([5]; p.o. administration) of the same compound?
Its value is 1 to 2 mg/kg.

And the “oral bioavailability (into the circulation), estimated” value ([9]; humans, estimated)?
The value was “approximately 25%”.

What about the oral bioavailability ([9]; species not stated) of the same compound?
Its oral bioavailability is roughly 20%.

And the Brain concentration ([6]; 1 mg/kg i.p., 10 min after injection)?
The Brain concentration was 6 ± 1 ng/g.

And the Plasma concentration ([6]; 1 mg/kg i.p., 10 min after injection, mean±SD, n=3)?
The Plasma concentration was 115 ± 2 ng/mL.

And the Brain concentration [6, 13]?
Its Brain concentration is 4 ± 1 ng/g.

What about the Plasma concentration [6, 13] of the same compound?
Its Plasma concentration is 18 ± 1 ng/mL.

And the Brain concentration [6, 14]?
Its Brain concentration is 27 ± 6 ng/g.

And the Plasma concentration [6, 14]?
The Plasma concentration was 933 ± 221 ng/mL.

And the Brain concentration [6, 15]?
The Brain concentration was 24 ± 1 ng/g.

And the Plasma concentration [6, 15]?
The Plasma concentration was 166 ± 77 ng/mL.

What about the “change of levels at 60 min from those measured at 10 min” value [6] of the same compound?
The value was “had not changed”.

And the “blood half-life compared with 6β-naltrexol” value ([6]; mice, preliminary experiments)?
The value was “longer blood half-life than 6β-naltrexol”.

And the “peripheral over central antagonist selectivity compared to 6β-naltrexol” value ([7]; animal experiments)?
Its value is “somewhat higher”.

What about the “Fold-Shift (antinociception ID50)/(GI transit ID50)” value ([7]; antagonist p.o./hydrocodone i.v.) of the same compound?
The value was 14 and 14.3.

What about the “selectivity in blocking peripheral over central opioid effects” value ([7]; mice, oral administration, earlier experiments) of the same compound?
Its value is “approximately twenty-fold”.

What about the “fold more potent peripherally than centrally” value [7] of the same compound?
The value was 14-25 fold.
